# Measurements reported in ChEMBL document CHEMBL1201862, “PubChem BioAssay data set” (2004).
# Where a name gives a salt, the structure may show the parent alone. Calls of active or inactive are those of the source.
# How the values were obtained:
# [1] = molecular target: Dual specificity tyrosine-phosphorylation-regulated kinase 1A (Rattus norvegicus, UniProt Q63470); type: biochemical, Homo sapiens
# HEK293 [2] = test: NOD1 signaling inhibitors, primary screen, cell-based, luminescence, uHTS (AID 1578); type: functional; conditions: Homo sapiens
# [3] = tested on: Streptococcus sp. 'group A'; test: growth inhibition of control SK(-) GAS strain, dose response, counter-screen for streptokinase expression inhibitor project, luminescence, kanamycin, BacTiterGlo, confirmation (AID 1900); type: functional, organism-based
# HEK293 [4] = test: cells; type: functional, cell-based; conditions: Homo sapiens
# HEK293 [5] = test: cells; type: functional, cell-based; conditions: Homo sapiens; remark: listed apart in the source
# HEK293 [6] = test: NOD2 signaling inhibitors in MDP-stimulated cells, cell-based, uHTS, luminescence (AID 2001); type: functional; conditions: Homo sapiens
# Streptococcus = test: Group A Streptococcus viability loss, dose response, counter-screen for streptokinase expression inhibitor project, luminescence, BacTiterGlo (AID 1915); type: functional, organism-based;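 further: potency for reduction of bacterial viability or growth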
# HEK293 [7] = test: cells; conditions: Homo sapiens
# SUMO-activating enzyme [8] = molecular target: T1, SUMO-activating enzyme (Homo sapiens, UniProt Q9UBT2); test: SUMOylation inhibitor hit validation, confirmation, SUMOylation inhibitor project, biochemical, AlphaScreen (AID 2018); type: functional
# T1 sequence (Q9UBE0 whole entry): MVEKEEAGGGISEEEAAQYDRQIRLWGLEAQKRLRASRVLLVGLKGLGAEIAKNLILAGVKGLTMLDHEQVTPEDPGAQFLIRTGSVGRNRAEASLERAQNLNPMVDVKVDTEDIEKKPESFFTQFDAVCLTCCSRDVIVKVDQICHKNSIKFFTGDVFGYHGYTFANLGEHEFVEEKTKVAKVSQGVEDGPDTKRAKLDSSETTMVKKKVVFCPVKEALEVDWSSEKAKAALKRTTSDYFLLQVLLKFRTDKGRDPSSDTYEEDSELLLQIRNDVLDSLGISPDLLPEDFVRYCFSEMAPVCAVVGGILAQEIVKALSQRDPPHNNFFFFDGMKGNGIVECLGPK
# T1 sequence (Q9UBT2 whole entry): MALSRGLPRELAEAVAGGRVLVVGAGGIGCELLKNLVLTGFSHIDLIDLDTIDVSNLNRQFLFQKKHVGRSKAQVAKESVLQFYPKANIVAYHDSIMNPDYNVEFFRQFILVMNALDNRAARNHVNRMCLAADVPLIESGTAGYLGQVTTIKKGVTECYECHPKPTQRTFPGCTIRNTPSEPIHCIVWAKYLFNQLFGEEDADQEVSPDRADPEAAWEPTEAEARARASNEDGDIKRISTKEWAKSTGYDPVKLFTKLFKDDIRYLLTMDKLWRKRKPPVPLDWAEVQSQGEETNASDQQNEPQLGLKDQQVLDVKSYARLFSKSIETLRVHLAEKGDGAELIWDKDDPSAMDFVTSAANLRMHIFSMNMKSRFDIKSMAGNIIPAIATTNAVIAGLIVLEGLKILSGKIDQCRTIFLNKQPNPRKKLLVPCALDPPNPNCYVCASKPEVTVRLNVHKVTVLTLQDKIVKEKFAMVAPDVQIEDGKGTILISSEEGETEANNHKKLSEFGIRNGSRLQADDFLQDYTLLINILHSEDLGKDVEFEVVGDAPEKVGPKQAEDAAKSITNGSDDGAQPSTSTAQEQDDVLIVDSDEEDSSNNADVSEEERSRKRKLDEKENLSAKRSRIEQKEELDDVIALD
# SUMO-activating enzyme [9] = molecular target: T1, SUMO-activating enzyme; test: inhibitors of in vitro SUMOylation cascade, primary screen, biochemical, HTRF, uHTS (AID 2006); type: protein-complex assay
# [10] = molecular target: T2, Heat shock factor protein 1 (Mus musculus, UniProt P38532); test: HSF1 potentiators in luciferase reporter cells, confirmation, cell-based, NIH3T3, luminescence, dose retest (AID 435004); type: functional;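 further: stress induced by proteasome inhibitor MG132 added 30 min after compound; luciferase reporter driven by HSF1 response element in NIH3T3 cells; actives raise luminescence as potentiators of the MG132 stress response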
# T2 sequence (P38532 whole entry): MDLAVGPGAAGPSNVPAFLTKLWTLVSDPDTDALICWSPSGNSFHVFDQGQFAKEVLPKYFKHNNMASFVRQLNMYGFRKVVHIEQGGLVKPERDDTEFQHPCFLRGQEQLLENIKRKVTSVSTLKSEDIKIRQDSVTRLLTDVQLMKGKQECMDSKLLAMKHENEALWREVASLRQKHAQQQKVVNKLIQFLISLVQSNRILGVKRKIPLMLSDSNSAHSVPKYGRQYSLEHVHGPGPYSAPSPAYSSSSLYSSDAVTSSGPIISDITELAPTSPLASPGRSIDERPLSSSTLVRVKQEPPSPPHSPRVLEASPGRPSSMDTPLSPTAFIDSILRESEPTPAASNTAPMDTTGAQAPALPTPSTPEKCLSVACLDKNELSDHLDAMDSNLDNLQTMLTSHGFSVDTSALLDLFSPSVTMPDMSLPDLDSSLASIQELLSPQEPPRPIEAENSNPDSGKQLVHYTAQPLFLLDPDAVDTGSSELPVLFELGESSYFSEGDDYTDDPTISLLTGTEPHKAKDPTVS
# [11] = molecular target: T3, Endoribonuclease toxin MazF (Escherichia coli K-12, UniProt P0AE70); test: MazF toxin RNase activators, dose response, biochemical, fluorescence, single-stranded RNA substrate, uHTS hits (AID 588481); type: functional
# T3 sequence (P0AE70 whole entry): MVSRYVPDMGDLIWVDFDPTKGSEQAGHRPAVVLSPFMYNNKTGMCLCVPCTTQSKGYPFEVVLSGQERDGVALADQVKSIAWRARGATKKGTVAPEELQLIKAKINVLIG
# INS1 = test: beta cell apoptosis inhibitors, cytokine rescue, dose response, luminescence, retest (AID 449756); type: functional, cell-based; conditions: Rattus norvegicus;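 further: cell death triggered by IL-1 beta plus TNF-alpha plus IFN-gamma mixture; protective hits raise ATP signal compared with cytokine alone wells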
# [12] = molecular target: T3, Endoribonuclease toxin MazF; test: fluorescent RNA oligo signal without MazF, dose response, counter-screen for MazEF activator project, biochemical, fluorescence, single-stranded RNase substrate (AID 588502); type: functional
# [13] = molecular target: Glucose-6-phosphate 1-dehydrogenase (Homo sapiens, UniProt P11413); test: human G6PD enzyme inhibitors, dose response, selectivity assay for P. falciparum G6PD inhibitor project, biochemical, fluorescence (AID 504792); type: functional
# [14] = molecular target: Peroxisome proliferator-activated receptor gamma/Nuclear receptor coactivator 1 (Homo sapiens, UniProt P37231); test: (§1) TR-FRET dose response biochemical High Throughput Screening assay for agonists of the steroid receptor coactivator 1 (SRC-1) recruitment by the peroxisome proliferator-activated receptor gamma (PPAR gamma): non-selective agonists. [Related pubchem assays (depositor defined):AID1300, AID1808, AID504735, AID631]; type: protein assay
# [15] = molecular target: Peroxisome proliferator-activated receptor gamma/Nuclear receptor coactivator 3 (Homo sapiens, UniProt P37231); test: as §1, with “3 (SRC-3)” for “1 (SRC-1)”, “assays: 1301 (Confirmation screen.), 1048 (Primary screen.)]” for “assays (depositor defined):AID1300, AID1808, AID504735, AID631]”; type: functional
# Chain of Peroxisome proliferator-activated receptor gamma/Nuclear receptor coactivator 3 (P37231 whole entry): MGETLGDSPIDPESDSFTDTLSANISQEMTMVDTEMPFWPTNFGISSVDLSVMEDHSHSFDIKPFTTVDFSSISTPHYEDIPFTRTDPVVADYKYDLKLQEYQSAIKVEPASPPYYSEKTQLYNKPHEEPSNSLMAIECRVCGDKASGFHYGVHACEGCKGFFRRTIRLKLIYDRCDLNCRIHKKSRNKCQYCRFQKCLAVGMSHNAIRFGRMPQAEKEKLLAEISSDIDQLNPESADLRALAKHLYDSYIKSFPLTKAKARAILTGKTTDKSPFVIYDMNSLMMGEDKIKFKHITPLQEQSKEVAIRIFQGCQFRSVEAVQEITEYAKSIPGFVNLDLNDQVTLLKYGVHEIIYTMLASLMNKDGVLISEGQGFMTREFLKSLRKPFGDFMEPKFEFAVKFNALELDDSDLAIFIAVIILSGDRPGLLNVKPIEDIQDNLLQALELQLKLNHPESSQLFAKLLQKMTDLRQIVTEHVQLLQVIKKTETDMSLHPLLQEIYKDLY
# Chain of Peroxisome proliferator-activated receptor gamma/Nuclear receptor coactivator 3 (Q9Y6Q9 whole entry, further chain): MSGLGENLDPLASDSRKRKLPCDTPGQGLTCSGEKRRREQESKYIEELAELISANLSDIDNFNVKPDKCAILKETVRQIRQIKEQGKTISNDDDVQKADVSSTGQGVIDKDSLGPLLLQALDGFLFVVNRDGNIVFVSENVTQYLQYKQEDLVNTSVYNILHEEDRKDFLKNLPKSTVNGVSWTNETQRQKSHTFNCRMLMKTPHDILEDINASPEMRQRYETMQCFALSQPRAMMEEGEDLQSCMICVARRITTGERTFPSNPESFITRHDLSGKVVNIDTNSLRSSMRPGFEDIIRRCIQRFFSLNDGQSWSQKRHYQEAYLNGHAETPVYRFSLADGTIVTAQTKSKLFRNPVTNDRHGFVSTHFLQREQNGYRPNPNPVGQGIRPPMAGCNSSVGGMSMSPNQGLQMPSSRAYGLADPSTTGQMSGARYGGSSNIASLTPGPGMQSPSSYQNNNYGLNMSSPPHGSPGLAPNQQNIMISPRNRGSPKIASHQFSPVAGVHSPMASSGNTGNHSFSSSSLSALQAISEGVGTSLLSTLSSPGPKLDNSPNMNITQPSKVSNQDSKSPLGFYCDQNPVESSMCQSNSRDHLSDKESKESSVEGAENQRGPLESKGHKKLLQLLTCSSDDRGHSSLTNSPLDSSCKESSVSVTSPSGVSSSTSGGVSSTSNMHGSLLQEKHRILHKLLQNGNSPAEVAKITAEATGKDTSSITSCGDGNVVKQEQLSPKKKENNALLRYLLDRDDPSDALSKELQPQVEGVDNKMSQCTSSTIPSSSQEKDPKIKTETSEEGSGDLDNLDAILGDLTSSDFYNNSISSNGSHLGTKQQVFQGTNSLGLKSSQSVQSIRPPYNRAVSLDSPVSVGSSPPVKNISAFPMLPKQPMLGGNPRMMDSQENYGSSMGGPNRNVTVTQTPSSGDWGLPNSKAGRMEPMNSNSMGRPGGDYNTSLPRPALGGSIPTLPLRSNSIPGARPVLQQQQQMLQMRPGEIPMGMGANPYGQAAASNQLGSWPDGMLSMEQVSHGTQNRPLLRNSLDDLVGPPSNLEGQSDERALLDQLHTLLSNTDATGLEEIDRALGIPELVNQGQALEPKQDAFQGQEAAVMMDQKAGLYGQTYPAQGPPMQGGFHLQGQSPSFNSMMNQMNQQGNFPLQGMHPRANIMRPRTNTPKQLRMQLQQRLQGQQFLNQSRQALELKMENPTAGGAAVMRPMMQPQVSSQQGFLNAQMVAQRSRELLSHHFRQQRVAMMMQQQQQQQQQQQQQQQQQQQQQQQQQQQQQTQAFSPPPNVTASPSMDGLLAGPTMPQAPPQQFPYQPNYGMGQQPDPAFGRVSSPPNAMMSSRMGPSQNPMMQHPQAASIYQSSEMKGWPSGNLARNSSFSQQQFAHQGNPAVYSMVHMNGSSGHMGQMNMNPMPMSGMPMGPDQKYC
# [16] = molecular target: Peroxisome proliferator-activated receptor gamma/Nuclear receptor coactivator 2 (Homo sapiens, UniProt P37231); test: TR-FRET dose response biochemical High Throughput Screening assay for agonists of the steroid receptor coactivator 2 (SRC-2) recruitment by the peroxisome proliferator-activated receptor gamma (PPAR gamma): non-selective agonists. [Related pubchem assays: 1297, 1032 ]; type: functional
# Chain of Peroxisome proliferator-activated receptor gamma/Nuclear receptor coactivator 2 (P37231 whole entry): as the sequence (P37231 whole entry) above
# Chain of Peroxisome proliferator-activated receptor gamma/Nuclear receptor coactivator 2 (Q15596 whole entry, further chain): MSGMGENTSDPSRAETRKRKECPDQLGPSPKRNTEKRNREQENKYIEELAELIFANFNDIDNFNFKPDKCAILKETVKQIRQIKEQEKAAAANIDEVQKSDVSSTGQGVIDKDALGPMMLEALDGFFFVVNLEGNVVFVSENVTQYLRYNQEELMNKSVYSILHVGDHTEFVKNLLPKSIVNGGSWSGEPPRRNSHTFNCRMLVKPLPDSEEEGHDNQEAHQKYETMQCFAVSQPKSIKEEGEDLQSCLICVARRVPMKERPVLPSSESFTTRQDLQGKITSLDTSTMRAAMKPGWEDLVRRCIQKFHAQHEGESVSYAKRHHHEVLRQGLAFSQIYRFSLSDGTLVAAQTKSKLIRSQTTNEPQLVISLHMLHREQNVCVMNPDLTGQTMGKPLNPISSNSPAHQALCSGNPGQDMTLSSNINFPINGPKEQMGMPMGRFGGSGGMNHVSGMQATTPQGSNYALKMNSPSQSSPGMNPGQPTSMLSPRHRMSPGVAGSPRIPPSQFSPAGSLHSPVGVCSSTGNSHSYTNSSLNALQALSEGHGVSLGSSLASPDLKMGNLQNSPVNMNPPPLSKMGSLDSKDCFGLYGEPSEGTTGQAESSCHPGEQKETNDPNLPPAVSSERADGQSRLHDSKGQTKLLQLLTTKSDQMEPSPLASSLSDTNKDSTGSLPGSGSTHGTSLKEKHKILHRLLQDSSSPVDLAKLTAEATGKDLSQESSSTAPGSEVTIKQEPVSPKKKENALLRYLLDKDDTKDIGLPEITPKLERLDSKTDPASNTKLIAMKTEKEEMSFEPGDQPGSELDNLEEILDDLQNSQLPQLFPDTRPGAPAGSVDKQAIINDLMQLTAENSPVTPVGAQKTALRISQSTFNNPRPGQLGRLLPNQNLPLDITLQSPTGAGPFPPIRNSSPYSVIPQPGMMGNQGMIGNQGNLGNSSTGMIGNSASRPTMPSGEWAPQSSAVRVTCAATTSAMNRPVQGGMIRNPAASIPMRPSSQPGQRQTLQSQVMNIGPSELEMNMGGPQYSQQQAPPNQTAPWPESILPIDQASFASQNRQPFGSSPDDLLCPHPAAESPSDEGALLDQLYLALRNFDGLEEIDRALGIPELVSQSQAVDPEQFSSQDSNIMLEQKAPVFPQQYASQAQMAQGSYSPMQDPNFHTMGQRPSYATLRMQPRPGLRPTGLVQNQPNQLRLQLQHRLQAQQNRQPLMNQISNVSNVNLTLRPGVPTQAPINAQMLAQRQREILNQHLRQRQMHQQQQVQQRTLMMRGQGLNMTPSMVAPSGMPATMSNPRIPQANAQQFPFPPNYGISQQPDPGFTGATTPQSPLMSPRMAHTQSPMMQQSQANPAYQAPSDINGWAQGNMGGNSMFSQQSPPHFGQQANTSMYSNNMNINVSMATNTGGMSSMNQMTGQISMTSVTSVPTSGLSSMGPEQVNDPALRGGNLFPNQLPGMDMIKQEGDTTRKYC
# HEK293 [17] = test: inhibitors of LMP1-driven NF-kB reporter, dose response, cell-based, HEK293, luciferase, cherry-pick (AID 588343); type: functional; conditions: Homo sapiens
# [18] = molecular target: Voltage-gated inwardly rectifying potassium channel KCNH2 (Homo sapiens, UniProt Q12809); conditions: Potency;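 further: confirmatory quantitative high-throughput screen measuring inhibition of hERG channel activity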
# [19] = molecular target: T4, DNA repair protein RAD52 homolog (Homo sapiens, UniProt P43351); type: functional, biochemical
# T4 sequence (P43351 whole entry): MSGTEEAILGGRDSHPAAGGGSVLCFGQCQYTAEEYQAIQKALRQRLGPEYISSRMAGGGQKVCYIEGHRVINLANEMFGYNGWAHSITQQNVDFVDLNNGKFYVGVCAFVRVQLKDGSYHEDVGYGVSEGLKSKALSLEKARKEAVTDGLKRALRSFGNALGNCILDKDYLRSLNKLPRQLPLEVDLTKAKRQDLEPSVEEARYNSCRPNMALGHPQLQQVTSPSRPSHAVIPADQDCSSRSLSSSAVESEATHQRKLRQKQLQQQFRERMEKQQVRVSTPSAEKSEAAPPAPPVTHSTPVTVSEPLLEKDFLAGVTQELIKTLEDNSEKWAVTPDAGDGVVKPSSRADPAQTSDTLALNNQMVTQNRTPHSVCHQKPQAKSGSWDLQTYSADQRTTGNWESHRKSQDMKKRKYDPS
structure (smiles),measurement,setting,value
COC(=O)c1oc2ccc(OC)cc2c1N,AC50,[1],1.56 µM (active)
N#Cc1c(O)nc(SCc2cccc(C(F)(F)F)c2)nc1-c1ccccc1,EC50,HEK293 [2],6.55 µM (active)
same,EC50,[3],2.63 µM (active)
same,IC50,HEK293 [4],> 20 µM (inactive)
same,IC50,HEK293 [5],19 µM (active)
same,IC50,HEK293 [6],13.2 µM (inactive)
same,EC50,Streptococcus,10.3 µM (active)
same,IC50,HEK293 [7],> 20 µM (inactive)
O=C1C([N-]S(=O)(=O)c2cccs2)=C([n+]2cccc(Cc3ccccc3)c2)C(=O)c2ccccc21,EC50,[3],1.53 µM (active)
same,IC50,SUMO-activating enzyme [8],9.51 µM (active)
same,IC50,SUMO-activating enzyme [9],12.9 µM (active)
same,EC50,Streptococcus,1.6 µM (active)
same,EC50,[10],> 260 µM (inactive)
same,EC50,[11],> 99 µM (inactive)
same,AC50,INS1,2.69 µM (active)
same,EC50,[12],36.5 µM (inactive)
CCCn1cc(S(=O)(=O)CC(=O)Nc2ccc(OC)cc2OC)c2ccccc21,IC50,[13],59.9 µM (inactive)
CCn1c(=O)cc(SCC(=O)Nc2ccc3c(c2)OCO3)c2ccccc21,EC50,[14],52.9 µM (inactive)
same,EC50,[15],> 79.4 µM (not active)
same,EC50,[16],35.4 µM (not active)
COCCNC(=O)CSc1cc(=O)n(C)c2cc(Cl)ccc12,EC50,[14],> 79.4 µM (inactive)
same,EC50,[15],> 79.4 µM (not active)
same,EC50,[16],> 79.4 µM (not active)
NC(=S)NN=Cc1nccc2c(N)cccc12,AC50,HEK293 [17],1.55 µM (active)
O=C(O)C1=CCCN(CCON=C(c2ccccc2)c2ccccc2)C1,AC50,[18],35.5 µM (inconclusive)
"CN(C)c1nc(N)c(C(=O)NC(=N)N)nc1Cl [5-(N,N-DIMETHYL)AMILORIDE HYDROCHLORIDE]",AC50,[19],18 µM (active)
same,AC50,[18],17.8 µM (inconclusive)
